Measured values: ChEMBL document CHEMBL3526037, “Evaluation of the relationship between sex, polymorphisms in CYP2C8 and CYP2C9, and pharmacokinetics of angiotensin receptor blockers” (Drug Metab Dispos, 2013)

Tests used:
Type in all cases: ADME, organism-based
[1] = Tmax in women plasma at 25 to 32 mg by LC/MS/MS analysis; settings: female, human
[2] = Clearance in men plasma at 25 to 32 mg by LC/MS/MS analysis; settings: male, human
[3] = Clearance in women plasma at 25 to 32 mg by LC/MS/MS analysis; settings: female, human
[4] = AUC in men plasma at 25 to 32 mg by LC/MS/MS analysis; settings: male, human
[5] = AUC in women plasma at 25 to 32 mg by LC/MS/MS analysis; settings: female, human
[6] = Cmax in men plasma at 25 to 32 mg by LC/MS/MS analysis; settings: male, human
[7] = Cmax in women plasma at 25 to 32 mg by LC/MS/MS analysis; settings: female, human
[8] = Half life in men plasma at 25 to 32 mg by LC/MS/MS analysis; settings: male, human
[9] = Half life in women plasma at 25 to 32 mg by LC/MS/MS analysis; settings: female, human
[10] = Tmax in men plasma at 25 to 32 mg by LC/MS/MS analysis; settings: male, human
[11] = AUC in human plasma expressing CYP2C8*1/*1 polymorphism at 25 to 32 mg by LC/MS/MS analysis
[12] = Cmax in human plasma expressing CYP2C8*1/*1 polymorphism at 25 to 32 mg by LC/MS/MS analysis
[13] = Half life in human plasma expressing CYP2C8*1/*1 polymorphism at 25 to 32 mg by LC/MS/MS analysis
[14] = Tmax in human plasma expressing CYP2C8*1/*1 polymorphism at 25 to 32 mg by LC/MS/MS analysis
[15] = Clearance in human plasma expressing CYP2C8*1/*1 polymorphism at 25 to 32 mg by LC/MS/MS analysis
[16] = AUC in human plasma expressing CYP2C8*2 allele carrier polymorphism at 25 to 32 mg by LC/MS/MS analysis
[17] = Cmax in human plasma expressing CYP2C8*2 allele carrier polymorphism at 25 to 32 mg by LC/MS/MS analysis
[18] = Half life in human plasma expressing CYP2C8*2 allele carrier polymorphism at 25 to 32 mg by LC/MS/MS analysis
[19] = Tmax in human plasma expressing CYP2C8*2 allele carrier polymorphism at 25 to 32 mg by LC/MS/MS analysis
[20] = Clearance in human plasma expressing CYP2C8*2 allele carrier polymorphism at 25 to 32 mg by LC/MS/MS analysis
[21] = AUC in human plasma expressing CYP2C8*3 allele carrier polymorphism at 25 to 32 mg by LC/MS/MS analysis
[22] = Cmax in human plasma expressing CYP2C8*3 allele carrier polymorphism at 25 to 32 mg by LC/MS/MS analysis
[23] = Half life in human plasma expressing CYP2C8*3 allele carrier polymorphism at 25 to 32 mg by LC/MS/MS analysis
[24] = Tmax in human plasma expressing CYP2C8*3 allele carrier polymorphism at 25 to 32 mg by LC/MS/MS analysis
[25] = Clearance in human plasma expressing CYP2C8*3 allele carrier polymorphism at 25 to 32 mg by LC/MS/MS analysis
[26] = AUC in human plasma expressing CYP2C8*4 allele carrier polymorphism at 25 to 32 mg by LC/MS/MS analysis
[27] = Cmax in human plasma expressing CYP2C8*4 allele carrier polymorphism at 25 to 32 mg by LC/MS/MS analysis
[28] = Half life in human plasma expressing CYP2C8*4 allele carrier polymorphism at 25 to 32 mg by LC/MS/MS analysis
[29] = Tmax in human plasma expressing CYP2C8*4 allele carrier polymorphism at 25 to 32 mg by LC/MS/MS analysis
[30] = Clearance in human plasma expressing CYP2C8*4 allele carrier polymorphism at 25 to 32 mg by LC/MS/MS analysis
[31] = AUC in human plasma expressing CYP2C9*1/*1 polymorphism at 25 to 32 mg by LC/MS/MS analysis
[32] = Cmax in human plasma expressing CYP2C9*1/*1 polymorphism at 25 to 32 mg by LC/MS/MS analysis
[33] = Half life in human plasma expressing CYP2C9*1/*1 polymorphism at 25 to 32 mg by LC/MS/MS analysis
[34] = Tmax in human plasma expressing CYP2C9*1/*1 polymorphism at 25 to 32 mg by LC/MS/MS analysis
[35] = Clearance in human plasma expressing CYP2C9*1/*1 polymorphism at 25 to 32 mg by LC/MS/MS analysis
[36] = AUC in human plasma expressing CYP2C9*2 allele carrier polymorphism at 25 to 32 mg by LC/MS/MS analysis
[37] = Cmax in human plasma expressing CYP2C9*2 allele carrier polymorphism at 25 to 32 mg by LC/MS/MS analysis
[38] = Half life in human plasma expressing CYP2C9*2 allele carrier polymorphism at 25 to 32 mg by LC/MS/MS analysis
[39] = Tmax in human plasma expressing CYP2C9*2 allele carrier polymorphism at 25 to 32 mg by LC/MS/MS analysis
[40] = Clearance in human plasma expressing CYP2C9*2 allele carrier polymorphism at 25 to 32 mg by LC/MS/MS analysis
[41] = AUC in human plasma expressing CYP2C9*3 allele carrier polymorphism at 25 to 32 mg by LC/MS/MS analysis
[42] = Cmax in human plasma expressing CYP2C9*3 allele carrier polymorphism at 25 to 32 mg by LC/MS/MS analysis
[43] = Half life in human plasma expressing CYP2C9*3 allele carrier polymorphism at 25 to 32 mg by LC/MS/MS analysis
[44] = Tmax in human plasma expressing CYP2C9*3 allele carrier polymorphism at 25 to 32 mg by LC/MS/MS analysis
[45] = Clearance in human plasma expressing CYP2C9*3 allele carrier polymorphism at 25 to 32 mg by LC/MS/MS analysis

CCOc1nc2cccc(C(=O)O)c2n1Cc1ccc(-c2ccccc2-c2nnn[nH]2)cc1 gave a Tmax [1] of 4.9 h, a clearance [2] of 2.33 mL/min/kg and a clearance [3] of 2.5 mL/min/kg. The AUC [4] was 3260 ng·h/mL, the AUC [5] was 3810 ng·h/mL and the Cmax [6] was 216 ng/mL. The Cmax [7] was 260 ng/mL, the half-life [8] was 11.3 h and the half-life [9] was 12.1 h. The Tmax [10] was 5.1 h, the AUC [11] was 3510 ng·h/mL and the Cmax [12] was 242 ng/mL. For the same compound, the half-life [13] was 11.7 h, the Tmax [14] was 5.2 h and the clearance [15] was 2.5 mL/min/kg. It also gave an AUC [16] of 3580 ng·h/mL, a Cmax [17] of 289 ng/mL and a half-life [18] of 10.7 h. It also gave a Tmax [19] of 3.4 h, a clearance [20] of 2.5 mL/min/kg and an AUC [21] of 3450 ng·h/mL. The Cmax [22] was 214 ng/mL, the half-life [23] was 12 h and the Tmax [24] was 5.1 h. The clearance [25] was 2.67 mL/min/kg, the AUC [26] was 4130 ng·h/mL and the Cmax [27] was 287 ng/mL. The half-life [28] was 11.2 h, the Tmax [29] was 4.1 h and the clearance [30] was 2.17 mL/min/kg. For the same compound, the AUC [31] was 3590 ng·h/mL, the Cmax [32] was 258 ng/mL and the half-life [33] was 10.9 h. The Tmax [34] was 5.1 h, the clearance [35] was 2.33 mL/min/kg and the AUC [36] was 3450 ng·h/mL. For the same compound, the Cmax [37] was 217 ng/mL, the half-life [38] was 12.8 h and the Tmax [39] was 4.8 h. The clearance [40] was 2.5 mL/min/kg, the AUC [41] was 3630 ng·h/mL and the Cmax [42] was 230 ng/mL. For the same compound, the half-life [43] was 12.1 h, the Tmax [44] was 5 h and the clearance [45] was 2.5 mL/min/kg.
